Results reported in publication PMC8456958, “Selective Bacterial Targeting and Infection‐Triggered Release of Antibiotic Colistin Conjugates” (Angewandte Chemie (International Ed. in English), 2021).
≈ marks a conversion by molar mass, not a printed value. Positions of bridges follow the written chain, without caps; N, C: chain ends. Non-standard residues stand in square brackets, D forms with d. Residues, ends and D or L forms follow the SMILES beside them. *: point of attachment. Heptanoyl(6-Me) = CC(C)CCCCC(=O)*; Dab = NCC[C@H](N)C(=O)O

Columns and labels:
[1] = system: E. coli K12; assay type: cell-based, Escherichia coli
Procedure: Determination of antibacterial activities by broth dilution assay
Bacterial suspensions at 5-6 x 10^5 CFU (1:1000 dilution of a bacterial suspension of OD600 = 1) in T-medium were incubated in volumes of 200 µl in sterile clear 96-well microtiter plates at 37 °C in a wet chamber with serial dilution of peptide-colistin constructs and controls (32 – 0.016 µM) for 18 h.
External neutrophil elastase was added at 10 mU/ml or 100 mU/ml to each well at the start of incubation, where indicated. After the incubation, the plate was placed for 5 min on a MTP shaker to generate homogenous bacterial suspensions. OD600 was then determined in a microplate reader. The wells with the lowest compound concentration without growth defined the MICs. […]
Figure S7. Heat plot of the growth of E. coli K12 and E. coli DSM 1116 in presence of 6. Rows A-D: E. coli K12; Rows E-H: E. coli DSM 1116; A + E colistin; B + F peptide-colistin construct 6; C + G peptide-colistin construct 6 + 10 mU/ml elastase; D + H bacteria without compounds. The numbers below the heatplot depict the concentration of colistin and peptides in µM. Conditions: T medium, incubation 20 h at 37 °C in wet chamber; inoculum: cultures at OD = 1.0 diluted 1:1000 (5-6 x 10^5 CFU/ml). […]
Figure S10. Heat plot of the growth of E. coli in presence of 48 and 49. Row A: E. coli K12 without added compounds; B colistin B; C peptide-colistin construct 49; D peptide-colistin construct 49 + 10 mU/ml elastase; E ElsaSub-colistin; F 48 with 10 mU elastase; G 4; H 4 with […]. The numbers depict the concentration of colistin and peptides in µM. Conditions: T medium, incubation 17.5 h at 37 °C in wet chamber; inoculum 5-6 x 10^5 CFU/ml. […]
with elastase 10 mU/ml pos-1-isomer (22) […]
with elastase 10 mU/ml pos-3-isomer (28) […]
with elastase 10 mU/ml pos-5-isomer (34) […]
with elastase 10 mU/ml pos-8-isomer (40) […]
with elastase 10 mU/ml pos-9-isomer (46)
Figure S11. Heat plot of the growth of E. coli in presence of positional isomers obtained by total chemical synthesis. Conditions: T medium, incubation for 20 h at 37 °C in wet chamber; inoculum 5-6 x 10^5 CFU/ml. Addition of neutrophil elastase at 10 and 100 mU/ml, as indicated. Concentrations of isomers stated below the heat plot in µg/ml. […]

[2] = system: E. coli K12; experiment: Infection assay in human plasma (CFU test, PMN/E. coli co-culture); assay type: cell-based, Escherichia coli; conditions: 10 μM, human blood plasma, bacteria:PMN 16:1, 1 h, 37 °C
Procedure: Figure 5 Cellular proof of concept for triggered antibiotic release from 6. a) Release of neutrophil elastase (NE) from neutrophil granulocytes. PMN were isolated and suspended in RPMI 1640. For activation, 0.1 μM fMLP was added. The samples were incubated for 1 h at 37 °C, centrifuged to remove cells, and the NE concentration was determined in the supernatant by ELISA. Values normalized to 1×10^6 cells mL^−1. Data are presented as the mean of 4 separate experiments. *p<0.03 compared to unactivated. b) Activity of NE after co‐cultivation of PMN with E. coli K12 in presence of 1 or 6. […] After 1 h colistin concentrations were determined by HPLC–MS. […]
Calculation of results: All samples and standards were measured in duplicate. The standard curve was constructed by plotting the mean absorbance for each standard on the y-axis against the concentration on the x-axis. A linear regression analysis was performed and the results for the samples were calculated. […]
on. […] The plate was incubated in a microplate reader for 60 min at 37 °C with shaking for 5 sec at 50 rpm once per minute.
Every minute readings were taken at 410 nm. For the calculation of the cleavage velocity, the difference in absorbance after an initialization phase at 15 min and a further incubation time of 30 min was used and related to total cleavage of the substrate. The blank was subtracted from the readings. […]

[3] = Table 2, E. coli K12, conservative MIC readouts of at least three independent biological experiments

SMILES: CC(C)CCCCC(=O)N[C@@H](CCN)C(=O)N[C@H](C(=O)N[C@@H](CCN)C(=O)N[C@H]1CCNC(=O)[C@H]([C@@H](C)O)NC(=O)[C@H](CCN)NC(=O)[C@H](CCN)NC(=O)[C@H](CC(C)C)NC(=O)[C@@H](CC(C)C)NC(=O)[C@H](CCN)NC1=O)[C@@H](C)O [Compound 1, colistin B, reference compound] ({Heptanoyl(6-Me)}-[Dab]T[Dab][Dab][Dab][dL]L[Dab][Dab]T; lactam 4-C)
- MIC, E. coli K12 ([1]; Table 1, without elastase, broth dilution, T-medium, 5-6 x 10^5 CFU, 37 °C, OD600 readout): 0.063 µM (≈ 0.0728 µg/mL)
- MIC with 10 mU mL^−1 Elastase [1, 3]: 0.031 µM
- MIC with 100 mU mL^−1 Elastase [1, 3]: 0.031 µM
- MIC without Elastase [1, 3]: 0.031 µM (≈ 0.0358 µg/mL)
- effect on bacterial growth [2]: abolished growth completely
